Data taken from PubChem BioAssay AID1645864 (Buhrlage Lab, Dana-Farber Cancer Institute and Novartis …, 2021).
Calls of active or inactive are those of the source.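 The calls were made as follows: active = maximal inhibition of USP17 at or above 30% in the confirmation dose-response, a value not among the printed readouts; inactive = the rest.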

Molecular target: Ubiquitin carboxyl-terminal hydrolase 17-like protein 5 (Homo sapiens) (UniProt A8MUK1)
Assay: ubiquitin-specific protease 17 DUB inhibitors, concentration-effect assay, cell-free, verification of initial screening actives (AID 1645864)
Settings: purified USP17, ubiquitin-rhodamine cleavage fluorescence, 3 h

Chain of Ubiquitin carboxyl-terminal hydrolase 17-like protein 5 (Homo sapiens) (A8MUK1 whole entry, looked up): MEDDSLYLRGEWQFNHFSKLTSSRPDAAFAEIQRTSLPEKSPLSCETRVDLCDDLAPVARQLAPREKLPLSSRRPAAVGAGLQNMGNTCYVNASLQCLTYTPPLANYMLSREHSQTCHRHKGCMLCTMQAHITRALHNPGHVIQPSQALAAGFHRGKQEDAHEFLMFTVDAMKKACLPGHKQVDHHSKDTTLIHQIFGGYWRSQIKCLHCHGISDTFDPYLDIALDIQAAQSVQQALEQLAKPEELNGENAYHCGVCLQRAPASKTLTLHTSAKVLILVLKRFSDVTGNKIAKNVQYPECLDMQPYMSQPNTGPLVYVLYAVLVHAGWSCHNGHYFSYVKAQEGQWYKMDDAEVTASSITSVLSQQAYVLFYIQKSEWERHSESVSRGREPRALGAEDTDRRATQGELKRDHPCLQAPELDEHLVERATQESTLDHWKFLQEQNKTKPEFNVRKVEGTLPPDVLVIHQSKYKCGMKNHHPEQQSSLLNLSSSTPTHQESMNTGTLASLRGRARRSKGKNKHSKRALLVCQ

Row | SMILES | IC50
1 | O=C(CSc1ncnc2c1oc1ccccc12)Nc1ccc2c(c1)OCCO2 | 29 µM
2 | O=C(Cn1cnc2c(oc3ccccc32)c1=O)NCc1ccccc1Cl | 14.5 µM
3 | O=C(Cc1cccnc1)Nc1ccc(N2CCN(C3CCCCC3)C2=O)nc1 | > 50 µM (inactive)
4 | Cc1nnc(C(=O)Nc2ccc(C(=O)NCc3ccccc3C)cc2)s1 | 27.2 µM
5 | CCn1cc2c(n1)c(=O)n(Cc1ccc(C)cc1)c(=O)n2CC(=O)Nc1ccc(F)cc1 | 4.06 µM
6 | O=C(O)c1ccccc1C(=O)Nc1ccc(SC(C(=O)Nc2ccccc2)c2ccccc2)cc1 (stereo not drawn) | > 50 µM (inactive)
7 | O=C(NCc1ccc(-c2nc3cnccc3o2)cc1)c1ccccc1F | 18.8 µM
8 | CC(C)(C)c1ccc(C(=O)Nc2ccc(Cn3cncn3)cc2)cc1 | > 50 µM (inactive)
9 | O=C(CSc1nc2cc(S(=O)(=O)Nc3ccccc3Cl)ccc2o1)Nc1ccc(N2CCOCC2)cc1 | 48 µM
10 | CCc1nc2c(NC(=O)Nc3cccc(C(=O)OC)c3)cccn2n1 | > 50 µM (inactive)
11 | N[C@@H](Cc1ccccc1)C(=O)N1CCC2(CC1)CN(C(=O)c1ccc(Cl)cc1)CCO2 | > 50 µM (inactive)
12 | c1csc(CCN2CCc3nc4cccnc4cc3C2)c1 | > 50 µM (inactive)
13 | COC(=O)c1ccc(C(=O)Nc2cc3ccccc3cc2NC(=O)c2ccc(C(=O)OC)cc2)cc1 | 0.68 µM
14 | CC1CCN(c2nnc(-c3nc(C4CC4)no3)c3ccccc23)CC1 | > 50 µM (inactive)
15 | N#Cc1ccccc1OCc1csc(-c2ccccc2)n1 | > 50 µM (inactive)
16 | O=C(Cn1nc2c3c4c(sc3ncn2c1=O)CCCCC4)Nc1ccc(Cl)cc1F | 2.08 µM
17 | Cc1ccc2c(c1)N(C)C(=O)c1cc(NC(=O)c3ccc(F)cc3)ccc1O2 | 2.03 µM
18 | Cc1nn(C)c2c1[C@@H](c1ccc(F)c(Br)c1)[C@H](NC(=O)c1ccccc1)C(=O)N2 | > 50 µM (inactive)
19 | COc1ccc(-c2cc(N3CCC(NC(=O)c4ccccc4)C3)n[nH]2)cc1 (stereo not drawn) | 20.8 µM
20 | Cn1c(=O)[nH]c2nncnc2c1=O | 7.23 µM
21 | O=C(Nc1nc2c(ccc3ccccc32)s1)c1cccc(Br)c1 | 2.7 µM
22 | COc1ccc(NC2c3ccccc3C(=O)N2c2ccccn2)cc1 (stereo not drawn) | > 50 µM (inactive)
23 | CCCCn1c(=O)c(CCC(=O)OCC(=O)Nc2ccc3c(c2)OCCO3)nc2ccccc21 | > 5 µM (inactive)
24 | CN(C)c1cccc(C(=O)Nc2cc(-c3cccnc3)no2)c1 | 26.9 µM

Row | SMILES | IC50
25 | COc1cc([C@@H]2c3cc4c(cc3C[C@@H]3COC(=O)[C@H]32)OCO4)cc(OC)c1OC | 17.3 µM
26 | CN1CCN(C(=O)c2cc(-c3ccn(CC4CC4)n3)n3ccccc23)CC1 | > 50 µM (inactive)
27 | N#Cc1ccccc1Cn1c(=O)n(CCCCC(=O)NCCc2ccccc2)c(=O)c2ccccc21 | 10 µM
28 | Cc1ccc(-n2c(=O)[nH]c3c(C(N)=O)nc(-c4cccnc4)nc32)cc1 | 4.36 µM
29 | Cc1nc(C(=O)Nc2cccc(Cl)c2Cl)nn1-c1cc(Cl)cc(Cl)c1 | 0.135 µM
30 | Cc1cccc(NC(=O)CN2C(=O)COc3cc(S(=O)(=O)N4CCCC4)ccc32)c1C | 26.4 µM
31 | O=C(Cn1c(=O)n(CCC(=O)N2CC=C(c3ccccc3)CC2)c(=O)c2ccccc21)NCc1ccco1 | 31.2 µM
32 | CC(C)CCCCCCCCCCC(=O)N(C)[C@H](CO)C(=O)N[C@H](C)C(=O)NCC(=O)N(C)C1C(=O)N[C@@H](C)C(=O)NC(C(=O)O)Cc2ccc(O)c(c2)-c2cc1ccc2O (stereo partly drawn) | > 50 µM (inactive)
33 | CCC(=O)Nc1ccc2c(c1)nc(CSc1nccc(C)n1)n2CC | > 50 µM (inactive)
34 | O=C1c2ccccc2-n2c1nc1ccccc1c2=O | 4.91 µM
35 | COc1ccc(NC(=O)CN2C(=O)c3ccccc3Sc3ccc(C(=O)N4CCCC4)cc32)cc1OC | 26.1 µM
36 | O=C(Cn1c(=O)n(Cc2ccc3c(c2)OCO3)c(=O)c2ncccc21)c1ccc(Cl)cc1 | 33 µM
37 | c1ccc2c(c1)ccc1nnc(-c3ccc4c(c3)OCO4)n12 | > 50 µM (inactive)
38 | CCOC(=O)c1c(C)nc2n(Cc3ccccc3)c3ccccc3n12 | 23 µM
39 | CC(OC(=O)c1c2c(nc3ccccc13)CCCCC2)C(=O)Nc1ccc2ccccc2c1 (stereo not drawn) | 3.81 µM
40 | COc1ccc(C(=O)Nc2ccc(S(=O)(=O)N3CCCCC3)cc2)cc1 | > 50 µM (inactive)
41 | Cc1ccc(-c2nc(NC(=O)Nc3ccc(Cl)cc3)sc2C)cc1 | 19.6 µM
42 | Fc1cccc(-n2cc(-c3noc(-c4ccc[nH]4)n3)nn2)c1 | 36.4 µM
43 | O=C(CSc1nnc(-c2ccncc2)n1Cc1ccccc1)c1ccc2[nH]c(O)cc2c1 | 4.12 µM
44 | CCOc1ccc2[nH]c(=O)c(CN(C(=O)c3cccs3)C3CCCC3)cc2c1 | 11.1 µM
45 | CC1=C(C)C(N(c2ccccc2)c2ccccc2)N(CCC(C)C)C1=O (stereo not drawn) | 19.2 µM
46 | CCC[C@H]1O[C@@H]2CC(=O)O[C@@H]2C2=C1C(=O)c1c(O)cccc1C2=O | 1.08 µM
47 | CC(C)(C)n1ncc2c(=O)n(Cc3cccc([N+](=O)[O-])c3)cnc21 | > 50 µM (inactive)
48 | CC(C)CC1NC(=O)C2CCCN2C1=O (stereo not drawn) | 37.5 µM
